According to patent publication US8323971B2, “Differentiation of pluripotent cells into primary germ layer progenitors” (Cambridge Enterprise Limited, priority 2006, dated 2012):

System: H9 hESCs
Assay: Screening of culture conditions by immunostaining for Oct4, Sox2, Brachyury, Sox17
Type: cell-based, human
Design: key to Pluripotency Oct4, fraction of expressing cells / Neuro Sox2, fraction of expressing cells / Meso Brachyury, fraction of expressing cells / Endo Sox17, fraction of expressing cells: 0 for absence of expression; VL for expressing cells <1%; L for expressing cells <5%; H for expressing cells >10%; VH for expressing cells >50%
Details: Conditions CDM (CDM-BSA), 7 days or more
Method: Table 2 and Table 3 show the screening of culture conditions for inducing mesoendoderm differentiation into CDM. H9 hESCs were grown for 7 days or more in CDM-BSA or CDM-PVA supplemented with different growth factors (Activin, BMP4, FGF2) or inhibitors (SU5402 for FGF, SB431542 for Activin/Nodal/TGFβ, BIO for βCatenin). Then, immunostaining analysis were used to determine the fractions of cells expressing the pluripotent marker Oct-4, neuroectoderm marker Sox2, the mesoderm marker Brachyury, and the endoderm marker Sox17. The quantities of expressing cells were divided into five arbitrary categories. 0 for absence of expression, VL for expressing cells <1%, L for expressing cells <5%, H for expressing cells >10%, VH for expressing cells >50%. IN red are indicated the conditions allowing the generation of mesendoderm cells expressing Brachyury or Sox17.
HESCs or differentiated progenitors were fixed for 20 minutes at 4° C. in 4% paraformaldehyde (PFA) and then washed three times in PBS. Cells were incubated for 20 minutes at room temperature in PBS containing 10% goat serum (Serotec) and subsequently incubated over night at 4° C. with primary antibody diluted in 1% goat serum in PBS as follows: SSEA-3 (1:100, Santa Cruz), SSAE-1 (1:25), Tra-1-60 (1:100, Santa CruZ), Oct-4 (1:100, Abcam ab18976 or SantaCruz), Sox2 (1:100, Abcam ab15830), Alkaline Phophatase (1:50, Abcam ab17989), Brachyury (1:100, Abcam ab20680 or RandD systems), Sox17 (RandD systems), FoxA2 (1:50, Abcam ab5074), GATA4 (1:250, Santa CruZ), GATA6 (1:200, Abcam ab22600 or Santa Cruz), Vent-2 (1:100, Abcam ab20913), Goosecoid (1:25, Abcam ab21059), Wnt3A (1:100, Abcam ab19925), CXCR4 (1:100, RanD Systems or Pharmingen). Nestin (1:200, Abcam ab5968), NCAM (1:100, Abcam ab8077), GFAP (ZZ), Neurofilament (ZZ), βIII Tubulin (ZZ), Glutamate (ZZ), N-Cadherin (1:100, Abcam ab18203 or ZZ). Cells were then washed three times in PBS and incubated with fluorescein-Isothiocyanate-conjugated anti-mouse IgG or IgM (Sigma 1:200 in 1% goat serum in PBS) or rat IgM (Jackson laboratory 1:300 in goat serum in PBS) or rabbit IgG (Jackson laboratory 1:200 in donkey serum in PBS) for two hours at room temperature. Unbound secondary antibody was removed by 3 washes in PBS. Hoechst 33258 was added to the first wash (Sigma 1:10000).
We then developed a method for inducing differentiation of hESCs into the three primary germ layers. Culture conditions inductive for mesoderm, endoderm and neuroectoderm were screened using an approach based on immunostaining analyses for the expression of proteins specifically expressed by pluripotent cells (Oct-4), neuroectoderm progenitors (Sox2 in absence of Oct4), endoderm progenitors (Sox17) and mesoderm progenitors (Brachyury). In summary, hESCs grown in CDM (CDM-BSA or hu-CDM) were plated on fibronectin in CDM-BSA/AF or CDM-PVA/AF. Then cocktails of growth factors (BMP4, FGF2, Activin) or chemical inhibitors (SU5402, SB431542) were added at different times and for different periods. After 7 to 10 days treatment, cells were fixed and then the expression of Oct-4/Sox2, Sox17 and Brachyury was analysed using immunostaining. The effect of three growth factors on the differentiation of hESCs into the primary germ layers was systematically analysed in our screen. We also studied the function of FGF and Activin signalling pathways in the maintenance of the pluripotent state by analysing the effect of the SU5402, a chemical inhibitor of FGF receptors, and the SB431542, a chemical inhibitor of Activin/TGFβ receptors.

BMP4: Bone Morphogenetic Protein 4 growth factor
0: Endo Sox17, fraction of expressing cells | Meso Brachyury, fraction of expressing cells | Neuro Sox2, fraction of expressing cells | Pluripotency Oct4, fraction of expressing cells
